The source of these data is PubChem BioAssay AID1259407 (Chemical Carcinogenesis Research Information System (CCRIS), 2018).

The test system of this data set is CCRIS mutagenicity, Ames/micronucleus/aberration tests. Briefly: CCRIS mutagenicity studies.
Where [1] appears, read: Test System: AMES SALMONELLA TYPHIMURIUM, Strain/Indicator: TA98, Metabolic Activation: NONE, Method: PREINCUBATION
The mark [2] stands for this setting: Test System: AMES SALMONELLA TYPHIMURIUM, Strain/Indicator: TA100, Metabolic Activation: NONE, Method: PREINCUBATION
Where [3] appears, read: Test System: AMES SALMONELLA TYPHIMURIUM, Strain/Indicator: TA1535, Metabolic Activation: NONE, Method: PREINCUBATION
Where [4] appears, read: Test System: AMES SALMONELLA TYPHIMURIUM, Strain/Indicator: TA1537, Metabolic Activation: NONE, Method: PREINCUBATION
The mark [5] stands for this setting: Test System: AMES SALMONELLA TYPHIMURIUM, Strain/Indicator: TA1538, Metabolic Activation: NONE, Method: PREINCUBATION

SMILES strings stand for the structures. Active and inactive are the calls of the source. The rule behind the calls is not given here.

In the case of `c1ccc2c(c1)Oc1ccccc1S2`, the mutagenic call is “inactive; negative” (Test System: AMES SALMONELLA TYPHIMURIUM, Strain/Indicator: TA97, Metabolic Activation: HAMSTER, LIVER, S-9, AROCLOR 1254 (10 OR 30%), Method: PREINCUBATION); “inactive; negative” (Test System: AMES SALMONELLA TYPHIMURIUM, Strain/Indicator: TA97, Metabolic Activation: NONE, Method: PREINCUBATION); “inactive; negative” (Test System: AMES SALMONELLA TYPHIMURIUM, Strain/Indicator: TA97, Metabolic Activation: RAT, LIVER, S-9, AROCLOR 1254 (10 OR 30%), Method: PREINCUBATION); “inactive; negative” (Test System: AMES SALMONELLA TYPHIMURIUM, Strain/Indicator: TA98, Metabolic Activation: HAMSTER, LIVER, S-9, AROCLOR 1254 (10 OR 30%), Method: PREINCUBATION); “inactive; negative” under setting [1]; “inactive; negative” (Test System: AMES SALMONELLA TYPHIMURIUM, Strain/Indicator: TA98, Metabolic Activation: RAT, LIVER, S-9, AROCLOR 1254 (10 OR 30%), Method: PREINCUBATION). Further, the mutagenic call is “inactive; negative” (Test System: AMES SALMONELLA TYPHIMURIUM, Strain/Indicator: TA100, Metabolic Activation: HAMSTER, LIVER, S-9, AROCLOR 1254 (10 OR 30%), Method: PREINCUBATION); “inactive; negative” under setting [2]; “inactive; negative” (Test System: AMES SALMONELLA TYPHIMURIUM, Strain/Indicator: TA100, Metabolic Activation: RAT, LIVER, S-9, AROCLOR 1254 (10 OR 30%), Method: PREINCUBATION); “inactive; negative” (Test System: AMES SALMONELLA TYPHIMURIUM, Strain/Indicator: TA1535, Metabolic Activation: HAMSTER, LIVER, S-9, AROCLOR 1254 (10 OR 30%), Method: PREINCUBATION); “inactive; negative” under setting [3]; “inactive; negative” (Test System: AMES SALMONELLA TYPHIMURIUM, Strain/Indicator: TA1535, Metabolic Activation: RAT, LIVER, S-9, AROCLOR 1254 (10 OR 30%), Method: PREINCUBATION).

For `Oc1cc(O)c2ccccc2c1`, the mutagenic call is “active; positive” under setting [1]; “active; positive” under setting [2]; “active; positive” (Test System: AMES SALMONELLA TYPHIMURIUM, Strain/Indicator: TA104, Metabolic Activation: NONE, Method: PREINCUBATION); “inactive; negative” under setting [3]; “inactive; negative” under setting [4]; “inactive; negative” under setting [5]. Further, the mutagenic call (Test System: AMES SALMONELLA TYPHIMURIUM, Strain/Indicator: TA2637, Metabolic Activation: NONE, Method: PREINCUBATION) is “active; positive” and the mutagenic call (Test System: AMES SALMONELLA TYPHIMURIUM, Strain/Indicator: TA2659, Metabolic Activation: NONE, Method: PREINCUBATION) was “inactive; negative”.

In the case of `O=C1CCC(=O)N1c1ccc(Cl)c(Cl)c1Cl`, the mutagenic call is, setting by setting: (Test System: AMES SALMONELLA TYPHIMURIUM, Strain/Indicator: TA98, Metabolic Activation: NONE, Method: STANDARD PLATE) “inactive; negative”; (Test System: AMES SALMONELLA TYPHIMURIUM, Strain/Indicator: TA98, Metabolic Activation: RAT, LIVER, S-9, AROCLOR 1254, Method: STANDARD PLATE) “inactive; negative”; (Test System: AMES SALMONELLA TYPHIMURIUM, Strain/Indicator: TA100, Metabolic Activation: NONE, Method: STANDARD PLATE) “inactive; negative”; (Test System: AMES SALMONELLA TYPHIMURIUM, Strain/Indicator: TA100, Metabolic Activation: RAT, LIVER, S-9, AROCLOR 1254, Method: STANDARD PLATE) “inactive; negative”.

As to `CC(N)(CN=[N+]=[N-])C(=O)O` (centres undefined), where the note is “Test System: AMES SALMONELLA TYPHIMURIUM, Strain/Indicator: TA1530, Metabolic Activation: NONE, Method: STANDARD PLATE”, the mutagenic call was “active; positive”.

For `C=CC(=O)OCCO`, the mutagenic call by setting is: (End Point: In vitro chromosomal aberrations, Test System: Chinese hamster lung (CHL/IU) cells, Metabolic Activation: Rat, Liver, S9, Phenobarbital and 5,6-benzoflavone) “active; positive (structural changes and ploidy)”; (Test System: AMES SALMONELLA TYPHIMURIUM, Strain/Indicator: TA102, Metabolic Activation: RAT, LIVER, S-9, PHENOBARBITAL AND 5,6-BENZOFLAVONE, Method: STANDARD PLATE) “inactive; negative”; (Test System: AMES SALMONELLA TYPHIMURIUM, Strain/Indicator: TA2638, Metabolic Activation: RAT, LIVER, S-9, PHENOBARBITAL AND 5,6-BENZOFLAVONE, Method: STANDARD PLATE) “inactive; negative”; (Test System: Ames Salmonella typhimurium, Strain/Indicator: TA98, Metabolic Activation: None, Method: Preincubation) “inactive; negative”; (Test System: Ames Salmonella typhimurium, Strain/Indicator: TA98, Metabolic Activation: Rat, Liver, S9, Sodium phenobarbital and 5,6-benzoflavone (10%), Method: Preincubation) “inactive; negative”; (Test System: Ames Salmonella typhimurium, Strain/Indicator: TA100, Metabolic Activation: None, Method: Preincubation) “inactive; negative”. For the same molecule, the mutagenic call is “inactive; negative” (Test System: Ames Salmonella typhimurium, Strain/Indicator: TA100, Metabolic Activation: Rat, Liver, S9, Sodium phenobarbital and 5,6-benzoflavone (10%), Method: Preincubation); “inactive; negative” (Test System: Ames Salmonella typhimurium, Strain/Indicator: TA1535, Metabolic Activation: None, Method: Preincubation); “inactive; negative” (Test System: Ames Salmonella typhimurium, Strain/Indicator: TA1535, Metabolic Activation: Rat, Liver, S9, Sodium phenobarbital and 5,6-benzoflavone (10%), Method: Preincubation); “inactive; negative” (Test System: Ames Salmonella typhimurium, Strain/Indicator: TA1537, Metabolic Activation: None, Method: Preincubation); “inactive; negative” (Test System: Ames Salmonella typhimurium, Strain/Indicator: TA1537, Metabolic Activation: Rat, Liver, S9, Sodium phenobarbital and 5,6-benzoflavone (10%), Method: Preincubation); “active; positive” (Test System: E. COLI, Strain/Indicator: WP2 (PKM101), Metabolic Activation: RAT, LIVER, S-9, PHENOBARBITAL AND 5,6-BENZOFLAVONE, Method: STANDARD PLATE). Further, the mutagenic call is “active; positive” (Test System: E. COLI, Strain/Indicator: WP2 UVRA (PKM101), Metabolic Activation: RAT, LIVER, S-9, PHENOBARBITAL AND 5,6-BENZOFLAVONE, Method: STANDARD PLATE); “active; positive” (Test System: E. coli, Strain/Indicator: WP2uvrA/pKM101, Metabolic Activation: None, Method: Preincubation); “active; positive” (Test System: MOUSE LYMPHOMA, Strain/Indicator: L5178Y (TK+/TK-), Metabolic Activation: NONE, Method: SUSPENSION/PLATE).

As for `CC(C)(S)C(=O)N[C@@H](CS)C(=O)O`, the mutagenic call under setting [1] is “inactive; negative”; the mutagenic call (Test System: AMES SALMONELLA TYPHIMURIUM, Strain/Indicator: TA98, Metabolic Activation: RAT, LIVER, S-9, Method: PREINCUBATION) is “inactive; negative”; the mutagenic call under setting [2] is “inactive; negative”; the mutagenic call (Test System: AMES SALMONELLA TYPHIMURIUM, Strain/Indicator: TA100, Metabolic Activation: RAT, LIVER, S-9, Method: PREINCUBATION) was “inactive; negative”; the mutagenic call under setting [3] was “inactive; negative”; the mutagenic call (Test System: AMES SALMONELLA TYPHIMURIUM, Strain/Indicator: TA1535, Metabolic Activation: RAT, LIVER, S-9, Method: PREINCUBATION) is “inactive; negative”. Further, the mutagenic call was “inactive; negative” under setting [4]; “inactive; negative” (Test System: AMES SALMONELLA TYPHIMURIUM, Strain/Indicator: TA1537, Metabolic Activation: RAT, LIVER, S-9, Method: PREINCUBATION); “inactive; negative” under setting [5]; “inactive; negative” (Test System: AMES SALMONELLA TYPHIMURIUM, Strain/Indicator: TA1538, Metabolic Activation: RAT, LIVER, S-9, Method: PREINCUBATION); “inactive; negative” (Test System: E. COLI, Strain/Indicator: WP2, Metabolic Activation: NONE, Method: PREINCUBATION); “inactive; negative” (Test System: E. COLI, Strain/Indicator: WP2 UVRA, Metabolic Activation: NONE, Method: PREINCUBATION). In addition, the mutagenic call (Test System: E. COLI, Strain/Indicator: WP2 UVRA, Metabolic Activation: RAT, LIVER, S-9, Method: PREINCUBATION) was “inactive; negative”.

Regarding `CN(C)c1ccc(N=Nc2ccccc2CO)cc1`, for the setting “Test System: AMES SALMONELLA TYPHIMURIUM, Strain/Indicator: TA98, Metabolic Activation: RAT, LIVER, S-9, N-BENZYLIMIDAZOLE, Method: PREINCUBATION”, the mutagenic call was “active; positive”.
